Test results: US9181305B2, “Exendin-4 peptide analogues” (SANOFI, priority 2012, dated 2015)
*1 amine or outer side, *2 acyl side, *3 side chain or, on linkers, in order; H or OH if unused. Where a SMILES comes first, the peptide text is derived from it. Side-chain parts run from the residue outwards. [ ]: non-standard residue; d: D form. The star is where a group is joined. γGlu = O=C(O)[C@H](CCC(=O)[*:2])N[*:1]; Palmitoyl = CCCCCCCCCCCCCCCC(=O)*; Aib = CC(C)(N)C(=O)O; GABA = NCCCC(=O)O

These molecules were tested against T1, human GLP-1 receptor (hGLP-1 R) (Homo sapiens, UniProt P43220) (assay: cAMP response (HTRF) of HEK-293 cells stably expressing human GLP-1 receptor). Conditions: HEK-293 cells expressing human GLP-1 receptor, cAMP formation.
T1 construct: expressed in transfected cells; host or cells: HEK-293
T1 sequence (P43220 24-463): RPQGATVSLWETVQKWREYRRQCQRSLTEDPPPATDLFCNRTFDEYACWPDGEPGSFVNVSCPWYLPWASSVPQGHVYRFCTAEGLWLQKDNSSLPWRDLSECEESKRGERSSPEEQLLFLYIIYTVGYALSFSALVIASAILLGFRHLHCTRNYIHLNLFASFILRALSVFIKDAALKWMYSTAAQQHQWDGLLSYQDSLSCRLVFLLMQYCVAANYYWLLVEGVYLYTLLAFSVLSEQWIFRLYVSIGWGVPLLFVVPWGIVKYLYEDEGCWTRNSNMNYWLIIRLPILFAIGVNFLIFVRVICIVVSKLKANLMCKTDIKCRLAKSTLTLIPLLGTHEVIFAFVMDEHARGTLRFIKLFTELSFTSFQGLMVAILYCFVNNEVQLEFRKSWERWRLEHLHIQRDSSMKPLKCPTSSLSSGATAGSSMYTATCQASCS
Assay type: cell-based
Protocol: cAMP content of cells was determined using a kit from Cisbio Corp. (cat. no. 62AM4PEC) based on HTRF (Homogenous Time Resolved Fluorescence). For preparation, cells were split into T175 culture flasks and grown overnight to near confluency in medium (DMEM/10% FBS). Medium was then removed and cells washed with PBS lacking calcium and magnesium, followed by proteinase treatment with accutase (Sigma-Aldrich cat. no. A6964). Detached cells were washed and resuspended in assay buffer (1×HBSS; 20 mM HEPES, 0.1% BSA, 2 mM IBMX) and cellular density determined. […] For measurement, 25 μl of test compound in assay buffer was added to the wells, followed by incubation for 30 minutes at room temperature.

SMILES | EC50 [pM]
CC[C@H](C)[C@H](NC(=O)[C@H](Cc1ccccc1)NC(=O)[C@H](CC(=O)O)NC(=O)[C@H](CCC(N)=O)NC(=O)[C@H](C)NC(=O)[C@H](CCCNC(=N)N)NC(=O)[C@H](CCCNC(=N)N)NC(=O)[C@H](CO)NC(=O)[C@H](CC(=O)O)NC(=O)[C@H](CCSC)NC(=O)[C@H](CCC(N)=O)NC(=O)[C@H](CCCCN)NC(=O)[C@H](CO)NC(=O)[C@H](CC(C)C)NC(=O)[C@H](CC(=O)O)NC(=O)[C@H](CO)NC(=O)[C@@H](NC(=O)[C@H](Cc1ccccc1)NC(=O)[C@@H](NC(=O)CNC(=O)[C@H](CCC(N)=O)NC(=O)[C@H](C)NC(=O)[C@@H](N)Cc1c[nH]cn1)[C@@H](C)O)[C@@H](C)O)C(=O)N[C@@H](CCC(=O)O)C(=O)N[C@@H](Cc1c[nH]c2ccccc12)C(=O)N[C@@H](CC(C)C)C(=O)N[C@@H](CCCCN)C(=O)N[C@@H](CC(N)=O)C(=O)NCC(=O)NCC(=O)N1CCC[C@H]1C(=O)N[C@@H](CO)C(=O)N[C@@H](CO)C(=O)NCC(=O)N[C@@H](C)C(=O)N1CCC[C@H]1C(=O)N1CCC[C@H]1C(=O)N1CCC[C@H]1C(=O)N[C@@H](CO)C(N)=O [(39)] (H-HAQGTFTSDLSKQMDSRRAQDFIEWLKNGGPSSGAPPPS-NH2) | 4.6
CCCCCCCCCCCCCCCC(=O)N[C@@H](CCC(=O)NCCCC[C@H](NC(=O)[C@H](CO)NC(=O)[C@@H]1CCCN1C(=O)[C@@H]1CCCN1C(=O)[C@@H]1CCCN1C(=O)[C@H](C)NC(=O)CNC(=O)[C@H](CO)NC(=O)[C@H](CO)NC(=O)[C@@H]1CCCN1C(=O)CNC(=O)CNC(=O)[C@H](CC(N)=O)NC(=O)[C@H](CCCCN)NC(=O)[C@H](CC(C)C)NC(=O)[C@H](Cc1c[nH]c2ccccc12)NC(=O)[C@H](CCC(=O)O)NC(=O)[C@@H](NC(=O)[C@H](Cc1ccccc1)NC(=O)[C@H](CC(=O)O)NC(=O)[C@H](CCC(N)=O)NC(=O)[C@H](C)NC(=O)[C@H](CCCNC(=N)N)NC(=O)[C@H](CCCNC(=N)N)NC(=O)[C@H](CO)NC(=O)[C@H](CC(=O)O)NC(=O)[C@H](CCSC)NC(=O)[C@H](CCC(N)=O)NC(=O)[C@H](CCCCN)NC(=O)[C@H](CO)NC(=O)[C@H](CC(C)C)NC(=O)[C@H](CC(=O)O)NC(=O)[C@H](CO)NC(=O)[C@@H](NC(=O)[C@H](Cc1ccccc1)NC(=O)[C@@H](NC(=O)CNC(=O)[C@H](CCC(N)=O)NC(=O)C(C)(C)NC(=O)[C@@H](N)Cc1c[nH]cn1)[C@@H](C)O)[C@@H](C)O)[C@@H](C)CC)C(N)=O)C(=O)O [(59)] (H-H[Aib]QGTFTSDLSKQMDSRRAQDFIEWLKNGGPSSGAPPPSK([γGlu-Palmitoyl])-NH2) | 2.9
CCCCCCCCCCCCCCCC(=O)N[C@@H](CCC(=O)NCCCC[C@H](NC(=O)[C@H](CO)NC(=O)[C@@H]1CCCN1C(=O)[C@@H]1CCCN1C(=O)[C@@H]1CCCN1C(=O)[C@H](C)NC(=O)CNC(=O)[C@H](CO)NC(=O)[C@H](CO)NC(=O)[C@@H]1CCCN1C(=O)CNC(=O)CNC(=O)[C@H](C)NC(=O)[C@H](CCCCN)NC(=O)[C@H](CC(C)C)NC(=O)[C@H](Cc1c[nH]c2ccccc12)NC(=O)[C@H](CCC(=O)O)NC(=O)[C@@H](NC(=O)[C@H](Cc1ccccc1)NC(=O)[C@H](CC(C)C)NC(=O)[C@H](CCC(N)=O)NC(=O)[C@H](C)NC(=O)[C@H](C)NC(=O)C(C)(C)NC(=O)[C@H](CO)NC(=O)[C@H](CCC(=O)O)NC(=O)[C@H](CCSC)NC(=O)[C@H](CCC(N)=O)NC(=O)[C@H](CCCCN)NC(=O)[C@H](CO)NC(=O)[C@H](CC(C)C)NC(=O)[C@H](CC(=O)O)NC(=O)[C@H](CO)NC(=O)[C@@H](NC(=O)[C@H](Cc1ccccc1)NC(=O)[C@@H](NC(=O)CNC(=O)[C@H](CCC(N)=O)NC(=O)[C@@H](CO)NC(=O)[C@@H](N)Cc1c[nH]cn1)[C@@H](C)O)[C@@H](C)O)[C@@H](C)CC)C(N)=O)C(=O)O [(112)] (H-H[dS]QGTFTSDLSKQMES[Aib]AAQLFIEWLKAGGPSSGAPPPSK([γGlu-Palmitoyl])-NH2) | 9.7
CCCCCCCCCCCCCCCC(=O)N[C@@H](CCC(=O)NCCCC[C@H](NC(=O)[C@H](CO)NC(=O)[C@@H]1CCCN1C(=O)[C@@H]1CCCN1C(=O)[C@@H]1CCCN1C(=O)[C@H](C)NC(=O)CNC(=O)[C@H](CO)NC(=O)[C@H](CO)NC(=O)[C@@H]1CCCN1C(=O)CNC(=O)CNC(=O)[C@H](CO)NC(=O)[C@H](CCCCN)NC(=O)[C@H](CC(C)C)NC(=O)[C@H](Cc1c[nH]c2ccccc12)NC(=O)[C@H](CCC(=O)O)NC(=O)[C@@H](NC(=O)[C@H](Cc1ccccc1)NC(=O)[C@H](CC(=O)O)NC(=O)[C@H](CCC(N)=O)NC(=O)[C@H](C)NC(=O)[C@H](C)NC(=O)[C@H](CCCNC(=N)N)NC(=O)[C@H](CO)NC(=O)[C@H](CCC(=O)O)NC(=O)[C@H](CCSC)NC(=O)[C@H](CCC(N)=O)NC(=O)[C@H](CCCCN)NC(=O)[C@H](CO)NC(=O)[C@H](CC(C)C)NC(=O)[C@H](CC(=O)O)NC(=O)[C@H](CO)NC(=O)[C@@H](NC(=O)[C@H](Cc1ccccc1)NC(=O)[C@@H](NC(=O)CNC(=O)[C@H](CCC(N)=O)NC(=O)[C@@H](CO)NC(=O)[C@@H](N)Cc1c[nH]cn1)[C@@H](C)O)[C@@H](C)O)[C@@H](C)CC)C(N)=O)C(=O)O [(103)] (H-H[dS]QGTFTSDLSKQMESRAAQDFIEWLKSGGPSSGAPPPSK([γGlu-Palmitoyl])-NH2) | 3.7
CCCCCCCCCCCCCCCC(=O)N[C@@H](CCC(=O)NCCCC[C@H](NC(=O)[C@@H]1CCCN1C(=O)[C@@H]1CCCN1C(=O)[C@@H]1CCCN1C(=O)[C@H](C)NC(=O)CNC(=O)[C@H](CO)NC(=O)[C@H](CO)NC(=O)[C@@H]1CCCN1C(=O)CNC(=O)CNC(=O)[C@H](CC(N)=O)NC(=O)[C@H](CCCCN)NC(=O)[C@H](CC(C)C)NC(=O)[C@H](Cc1c[nH]c2ccccc12)NC(=O)[C@H](CCC(=O)O)NC(=O)[C@@H](NC(=O)[C@H](Cc1ccccc1)NC(=O)[C@H](CC(=O)O)NC(=O)[C@H](CCC(N)=O)NC(=O)[C@H](C)NC(=O)[C@H](CCCNC(=N)N)NC(=O)[C@H](CCCNC(=N)N)NC(=O)[C@H](CO)NC(=O)[C@H](CC(=O)O)NC(=O)[C@H](CCSC)NC(=O)[C@H](CCC(N)=O)NC(=O)[C@H](CCCCN)NC(=O)[C@H](CO)NC(=O)[C@H](CC(C)C)NC(=O)[C@H](CC(=O)O)NC(=O)[C@H](CO)NC(=O)[C@@H](NC(=O)[C@H](Cc1ccccc1)NC(=O)[C@@H](NC(=O)CNC(=O)[C@H](CCC(N)=O)NC(=O)[C@@H](CO)NC(=O)[C@@H](N)Cc1c[nH]cn1)[C@@H](C)O)[C@@H](C)O)[C@@H](C)CC)C(N)=O)C(=O)O [(51)] | 5.8
CCCCCCCCCCCCCCCC(=O)NCCCC(=O)NCCCC[C@H](NC(=O)[C@H](CO)NC(=O)[C@@H]1CCCN1C(=O)[C@@H]1CCCN1C(=O)[C@@H]1CCCN1C(=O)[C@H](C)NC(=O)CNC(=O)[C@H](CO)NC(=O)[C@H](CO)NC(=O)[C@@H]1CCCN1C(=O)CNC(=O)CNC(=O)[C@H](CO)NC(=O)[C@H](CCCCN)NC(=O)[C@H](CC(C)C)NC(=O)[C@H](Cc1c[nH]c2ccccc12)NC(=O)[C@H](CCC(=O)O)NC(=O)[C@@H](NC(=O)[C@H](Cc1ccccc1)NC(=O)[C@H](CC(=O)O)NC(=O)[C@H](CCC(N)=O)NC(=O)[C@H](C)NC(=O)[C@H](CCCNC(=N)N)NC(=O)[C@H](CCCNC(=N)N)NC(=O)[C@H](CO)NC(=O)[C@H](CCC(=O)O)NC(=O)[C@H](CCSC)NC(=O)[C@H](CCC(N)=O)NC(=O)[C@H](CCCCN)NC(=O)[C@H](CO)NC(=O)[C@H](CC(C)C)NC(=O)[C@H](CC(=O)O)NC(=O)[C@H](CO)NC(=O)[C@@H](NC(=O)[C@H](Cc1ccccc1)NC(=O)[C@@H](NC(=O)CNC(=O)[C@H](CCC(N)=O)NC(=O)[C@@H](CO)NC(=O)[C@@H](N)Cc1c[nH]cn1)[C@@H](C)O)[C@@H](C)O)[C@@H](C)CC)C(N)=O [(125)] (H-H[dS]QGTFTSDLSKQMESRRAQDFIEWLKSGGPSSGAPPPSK([GABA-Palmitoyl])-NH2) | 10.8
